Reference: US20190275169A1, “TARGETED IMMUNOSUPPRESSION FOR OPTOGENETIC INTERVENTION” (Circuit Therapeutics, Inc., priority 2018, published 2019)

Test system: light responsive excitatory opsin protein ChR2 delivered virally via AAV and expressed in the sensory nerve of a mouse
Experiment: Light-responsiveness over time after AAV delivery of ChR2 to the sensory nerve, immunosuppressant paradigms versus saline (FIG. 2A-2I)
Assay type: in vivo
Conditions: drug paradigm and schedule as in FIG. 1; light approx. 450 nm
Excerpt: Referring to FIG. 1, various drug groupings are listed (2) which have been known to modulate the immune system, including cyclosporine (“Cyc”), cyclosporine+mycophenolate mofetil (“MMF”), dexamethasone, rapamycin in various dosage configurations, rapamycin+dexamethasone+FK506 (also known as “tacrolimus”; an immunosuppressive drug used mainly after organ transplant to lower rejection risk), and metformin (a medication utilized in treating diabetes and polycystic ovary syndrome which also has been inculcated in immune suppression). Each of these listed drugs has previously been approved by the U.S. F.D.A. for different indications, and the depicted drug schedules associated with each grouping feature dosing and scheduling information that previously has been published in different treatment paradigms, such as for cardiovascular or transplant rejection scenarios.
Thus, referring again to the table (2) of FIG. 1, for cyclosporine, a subcutaneous (or “subQ” or “SQ”) regime is listed, wherein cyclosporine is injected subcutaneously for one week prior to injection of genetic material, and then every two days after, as is a cyclosporine+MMF combination (noted as “Cyc+MMF”) which has been used with success, for example, in clinical trials with adeno associated virus (“AAV”) gene therapies; the term “I.P.” or “i.p.” refers to intraperitoneal injection. […]

## CN(C)C(=N)N=C(N)N [metformin]
  effect on proportion of animals still exhibiting light-responsiveness versus saline: does not seem to have a significant impact
